According to patent publication US11230542B2, “Inhibitors of integrated stress response pathway” (Praxis Biotech LLC, priority 2017, dated 2022):

Experiments:
[1] = test system: C57Bl/6J mice with TBI; assay: Learning memory, long-term memory and social behavior after traumatic brain injury (TBI); type: in vivo, mouse
Source text: Wild type three-month-old male C57Bl/6J mice were randomly assigned to TBI or sham surgeries. Animals were anesthetized and maintained at 2% isoflurane and secured to a stereotaxic frame with nontraumatic ear bars. The hair on their scalp was removed, and eye ointment and betadine were applied to their eyes and scalp, respectively. A midline incision was made to expose the skull. A unilateral TBI was induced in the right parietal lobe using the controlled cortical impact model (Nat Neurosci. 2014 August; 17(8): 1073-82). Mice received a 3.5-mm diameter craniectomy, a removal of part of the skull, using an electric microdrill. The coordinates of the craniectomy were: anteroposterior, −2.00 mm and mediolateral, +2.00 mm with respect to bregma. After the craniectomy, the contusion was induced using a 3-mm convex tip attached to an electromagnetic impactor (Leica). The contusion depth was set to 0.95 mm from dura with a velocity of 4.0 m/s sustained for 300 ms. These injury parameters were chosen to target, but not penetrate, the hippocampus. Sham animals received craniectomy surgeries but without the focal injury. After focal TBI surgery, the scalp was sutured and the animal was allowed to recover in an incubation chamber set to 37° C. Animals were returned to their home cage after showing normal walking and grooming behavior.
After 28 days post injury (dpi), animals were tested on the RAWM assay (see above). Animals ran 12 trials during learning test and 4 trials during memory test. Last three trials from learning test and all four trials from memory test were averaged to determine learning memory (learning test) and long-term memory (memory test). […]
To quantitate social tendencies of the treated mice, the time spent with a novel conspecific mouse was measured in a Crawley's three-chamber box (J Vis Exp. 2011; (48): 2473). […] The time spent with the never-before-met animal was recorded. Direct contact between the treated mouse and the housing cage or stretching of the body of the subject mouse in an area 3-5 cm around the housing cage is counted as an active contact.

[2] = test system: Balb/c mice with immobilized hindlimb; assay: Immobilization-induced muscle atrophy; type: in vivo, mouse; settings: 10 mg/kg oral, 3 days immobilization
Protocol: Wild type eight-weeks-old male Balb/c mice obtained from the vivarium Fundacion Ciencia & Vida Chile (Santiago, Chile) were used. Mice were housed in independent plastic cages, fed ad libitum in a room maintained at 25° C. with a 12-h:12-h light:dark cycle.
Twenty-four hours before and during the 3 days of immobilization procedures, animals received oral administration via feeding tubes (15 gauge) of vehicle (50% Polyethylene glycol 400 (Sigma-Aldrich P3265) in distilled water or 10 mg/kg of compound 3 formulated in vehicle.
One hindlimb was immobilized with a plastic stick placed over and under the limb and fixed with a medical adhesive bandage. Animals were daily monitored. The immobilization procedure prevented movement of the immobilized leg alone. After 3 days, the animals were sacrificed and gastrocnemius, quadriceps and tibialis anterior muscles were removed from both hindlimbs, the contralateral, non-immobilized leg being used as an internal control. […]
Upon collection, muscles were immediately frozen in liquid nitrogen and then stored at −80° C. […] Protein concentration in supernatants was determined using BCA Protein Assay Kit (Pierce). […]
Puromycin (12D10) (Merck Millipore) and β-actin (Sigma-Aldrich) antibodies were used as primary antibodies. […] Quantification of protein bands was done by densitometry using ImageJ software. […]

Question: Which “learning memory, number of errors in RAWM” value ([1]; 5 mg/kg intraperitoneally, 28-29 dpi, versus vehicle) does the source give for `O=C(COc1ccc(Cl)cc1)N[C@H]1CC[C@H](NC[C@@H](O)COc2ccc(Cl)cc2)CC1` (single isomer, unassigned) [Compound 3, (+)-2-(4-chlorophenoxy)-N-(4-((3-(4-chlorophenoxy)-2-hydroxypropyl)amino)cyclohexyl)acetamide] here?
Answer: The value was “made significantly less errors over the course of training”.

Question: What about the “long-term memory, RAWM” value ([1]; 35 dpi, 7 days after training, versus vehicle) of the same compound?
Answer: The value was “a similar trend was seen”.

Question: And the “social behavior, time spent with the novel mouse” value ([1]; 42 dpi, Crawley's three-chamber box)?
Answer: Its value is “spent more time with the novel mouse at levels similar to those animals from sham group”.

Question: What about the “protein synthesis in immobilized hindlimb muscle” value ([2]; gastrocnemius) of the same compound?
Answer: The value was “partial recovery of protein synthesis”.

Question: What about the “protein synthesis in immobilized hindlimb muscle” value ([2]; tibialis anterior and quadriceps) of the same compound?
Answer: Its value is “complete recovery of protein synthesis”.
